Structures can show the parent of a compound that is named as a salt. Starred links: 1 amine or outer side, 2 acyl side, 3 side chain; linkers in the order of their positions; H or OH if unused. Positions of bridges follow the written chain, without caps; N, C: chain ends. Non-standard residues stand in square brackets, D forms with d. Residues, ends and D or L forms follow the SMILES beside them. *: point of attachment. hTyr(3S-OH,4S-OH,3'-OSO3H) = N[C@H](C(=O)O)[C@H](O)[C@@H](O)c1ccc(O)c(OS(=O)(=O)O)c1; Orn(4R-OH,5R-OH) = O=C([C@H](C[C@@H](O)[C@@H](O)N[*:3])N[*:1])[*:2]; Pro(3S-OH,4S-Me) = C[C@H]1CN[C@H](C(=O)O)[C@H]1O; X1 = CCCCCOc1ccc(-c2cc(-c3ccc(C(=O)*)cc3)no2)cc1; Gln(3R-OH) = NC(=O)C[C@@H](O)[C@H](N)C(=O)O; Hyp = O=C(O)[C@@H]1C[C@@H](O)CN1

The first series has as its system HT29. The conditions noted are these: 72 h, relative to DMSO, 10 µM, Relative cell viability (%). The gist of the method:
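Cells were exposed to drug for 72 h, then to WST-1 for 2 h at 37 °C, and absorbance was read at 450 nm as viability against DMSO treatment. In the screen, each compound was applied at 10 µM.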
For the compound `COc1ccc2nc([S@@+]([O-])Cc3ncc(C)c(OC)c3C)[nH]c2c1` [Esomeprazole Magnesium], the “Relative cell viability (%)” value worked out at 80.51%.

Take `COc1cc2nc(N3CCN(C(=O)C4CCCO4)CC3)nc(N)c2cc1OC` (stereo not drawn) [Terazosin]: the “Relative cell viability (%)” value was 88.03%.

`O=C(O)Cc1ccccc1Nc1c(Cl)cccc1Cl` [Diclofenac Sodium]: the “Relative cell viability (%)” value came out at 111.9%.

As to `Cc1c(-c2ccc(O)cc2)n(Cc2ccc(OCCN3CCCCCC3)cc2)c2ccc(O)cc12` [Bazedoxifene Acetate], the “Relative cell viability (%)” value was found to be 88.41%.

Still in this series, the particulars now being: 72 h, relative to DMSO; 10 µM.
As to `C[C@]12CCC(=O)C(O)=C1CC[C@@H]1[C@@H]2CC[C@]2(C)C(=O)CC[C@@H]12` [Formestane], the “Relative cell viability (%)” value is recorded as 110.8%.

`COc1cccc(-c2ccc(NC(=O)C3=C(C(=O)O)CCC3)c(F)c2)c1` [Vidofludimus]: the “Relative cell viability (%)” value amounted to 104.7%.

As for `CN(C)CCC=C1c2ccccc2C=Cc2ccccc21` [Cyclobenzaprine HCl], the “Relative cell viability (%)” value is on record as 39.39%.

Regarding `N#CC1(c2ccc(NC(=O)c3cccnc3NCc3ccncc3)cc2)CCCC1` [Apatinib], the “Relative cell viability (%)” value was 110.8%.

Regarding `Clc1ccc(C(Cn2ccnc2)OCc2ccsc2Cl)c(Cl)c1` (stereo not drawn) [Tioconazole], the “Relative cell viability (%)” value was found to be 135.7%.

As to `Cc1ccc(-c2cc(C(F)(F)F)nn2-c2ccc(S(N)(=O)=O)cc2)cc1` [Celecoxib], the “Relative cell viability (%)” value is 69.63%.

Consider `NC(=O)[C@@H](CCC(F)(F)F)N(Cc1ccc(-c2ncon2)cc1F)S(=O)(=O)c1ccc(Cl)cc1` [Avagacestat (BMS-708163)], for which the “Relative cell viability (%)” value was 74.3%.

In the case of `CCCCCOc1ccc(-c2cc(-c3ccc(C(=O)N[C@H]4C[C@@H](O)[C@@H](O)NC(=O)[C@@H]5[C@@H](O)[C@@H](C)CN5C(=O)[C@H]([C@H](O)CC(N)=O)NC(=O)[C@H]([C@H](O)[C@@H](O)c5ccc(O)c(OS(=O)(=O)O)c5)NC(=O)[C@@H]5C[C@@H](O)CN5C(=O)[C@H]([C@@H](C)O)NC4=O)cc3)no2)cc1` [Micafungin Sodium] (X1-[Orn(4R-OH,5R-OH)]T[Hyp][hTyr(3S-OH,4S-OH,3'-OSO3H)][Gln(3R-OH)][Pro(3S-OH,4S-Me)]; lactam 1-C), the “Relative cell viability (%)” value came to 77.58%.

`Nc1c(CC(=O)O)cccc1C(=O)c1ccc(Br)cc1` [Bromfenac Sodium]: the “Relative cell viability (%)” value was found to be 78.48%.

In the case of `Nc1ncn([C@@H]2O[C@H](CO)[C@@H](O)[C@H]2O)c(=O)n1` [Azacitidine], the “Relative cell viability (%)” value came out at 56.36%.

Take `Nc1nc2c(ncn2COCCO)c(=O)[nH]1` [Aciclovir]: the “Relative cell viability (%)” value stood at 89.41%.

In the case of `C[C@@H]1CC[C@H]2[C@@H](C)C(=O)O[C@@H]3O[C@@]4(C)CC[C@@H]1[C@]32OO4` [Artemisinin], the “Relative cell viability (%)” value stood at 110.1%.

On to `NCCc1c[nH]c2ccc(O)cc12` [Serotonin HCl], for which the “Relative cell viability (%)” value stood at 86.67%.

As for `CC12CC3CC(C)(C1)CC(N)(C3)C2` [Memantine HCl], the “Relative cell viability (%)” value is listed as 108.7%.

Turning to `CCn1cc(C(=O)O)c(=O)c2ccc(C)nc21` [Nalidixic acid], the “Relative cell viability (%)” value turned out to be 106.7%.

Regarding `Cn1ncc(Cl)c1-c1cc(C(=O)N[C@H](CN)Cc2cccc(F)c2)sc1Cl` [Afuresertib (GSK2110183)], the “Relative cell viability (%)” value is listed as 13.68%.

For `COc1cc(/C=C/C(=O)CC(=O)/C=C/c2ccc(O)c(OC)c2)ccc1O` [Curcumin], the “Relative cell viability (%)” value stood at 46.19%.

On to `COC(=O)N[C@H](C(=O)N1CC2(CC2)C[C@H]1c1ncc(-c2ccc3c(c2)C(F)(F)c2cc(-c4ccc5nc([C@@H]6[C@H]7CC[C@H](C7)N6C(=O)[C@@H](NC(=O)OC)C(C)C)[nH]c5c4)ccc2-3)[nH]1)C(C)C` [Ledipasvir (GS5885)], for which the “Relative cell viability (%)” value was found to be 80.34%.

On to `O=C(O)CCNC(=O)c1ccccc1` [Betamipron], for which the “Relative cell viability (%)” value is 90.303%.

Regarding `CC1CC(OC(=O)C(O)c2ccccc2)CC(C)(C)C1` (stereo not drawn) [Cyclandelate], the “Relative cell viability (%)” value is on record as 65.76%.

For the compound `O=c1c(-c2ccc(O)cc2)coc2cc(O)cc(O)c12` [Genistein], the “Relative cell viability (%)” value is 102.3%.

`OCCOCCN1CCN(C2=Nc3ccccc3Sc3ccccc32)CC1` [Quetiapine Fumarate]: the “Relative cell viability (%)” value came to 47.46%.

With `NC(=O)c1ncn([C@@H]2O[C@H](CO)[C@@H](O)[C@H]2O)c1N` [Acadesine], the “Relative cell viability (%)” value is 105.9%.

In the case of `Cc1nnc(C(=O)NC(C)(C)c2nc(C(=O)NCc3ccc(F)cc3)c(O)c(=O)n2C)o1` [Raltegravir (MK-0518)], the “Relative cell viability (%)” value amounted to 181.8%.

Take `CC[C@]1(O)C[C@H]2CN(CCc3c([nH]c4ccccc34)[C@@](C(=O)OC)(c3cc4c(cc3OC)N(C=O)[C@H]3[C@@](O)(C(=O)OC)[C@H](OC(C)=O)[C@]5(CC)C=CCN6CC[C@]43[C@@H]65)C2)C1` [Vincristine]: the “Relative cell viability (%)” value amounted to 22.9%.

With `CN1C[C@@H]2c3ccccc3Oc3ccc(Cl)cc3[C@H]2C1` (racemic) [Asenapine], the “Relative cell viability (%)” value was 50.93%.

As to `CN(C)c1ccc(C(=C2C=CC(=[N+](C)C)C=C2)c2ccc(N(C)C)cc2)cc1` [Crystal Violet], the “Relative cell viability (%)” value came to 4.52%.

As for `COc1cc(C(=O)O)ccc1NC(=O)[C@@H]1N[C@@H](CC(C)(C)C)[C@](C#N)(c2ccc(Cl)cc2F)[C@H]1c1cccc(Cl)c1F` [Idasanutlin (RG-7388)], the “Relative cell viability (%)” value is 98.29%.

In the case of `COC(=O)Nc1nc2cc(C(=O)c3ccc(F)cc3)ccc2[nH]1` [Flubendazole], the “Relative cell viability (%)” value is on record as 16.95%.

For `CN(C)C/C=C/C(=O)Nc1cc2c(Nc3ccc(F)c(Cl)c3)ncnc2cc1O[C@H]1CCOC1` [Afatinib (BIBW2992) Dimaleate], the “Relative cell viability (%)” value is 20.09%.

On to `C[C@H]1CNCCCN1S(=O)(=O)c1cccc2cncc(F)c12` [Ripasudil (K-115)], for which the “Relative cell viability (%)” value worked out at 118.8%.

As for `Oc1cc(O)c(Cl)cn1` [Gimeracil], the “Relative cell viability (%)” value worked out at 117.6%.

Turning to `CCOc1ccc2nc3cc(N)ccc3c(N)c2c1` [Ethacridine lactate monohydrate], the “Relative cell viability (%)” value was determined as 39.39%.

Turning to `OC[C@@H](O)[C@@H](O)[C@H](O)[C@@H](O)CO` [Sorbitol], the “Relative cell viability (%)” value was determined as 125%.

For `CN1CCc2nc(C(=O)N[C@@H]3C[C@@H](C(=O)N(C)C)CC[C@@H]3NC(=O)C(=O)Nc3ccc(Cl)cn3)sc2C1` [Edoxaban], the “Relative cell viability (%)” value stood at 95.73%.

As to `CS(=O)(=O)Nc1ccc([N+](=O)[O-])cc1Oc1ccccc1` [Nimesulide], the “Relative cell viability (%)” value is recorded as 191.7%.

`Cc1c(Nc2ncccc2C(=O)O)cccc1C(F)(F)F` [Flunixin Meglumin]: the “Relative cell viability (%)” value is reported as 128.5%.

`COCCOC(=O)C1=C(C)NC(C)=C(C(=O)OC/C=C/c2ccccc2)C1c1cccc([N+](=O)[O-])c1` (stereo not drawn) [Cilnidipine]: the “Relative cell viability (%)” value stood at 69.63%.

For the compound `COc1ncc(-c2ccc3nccc(-c4ccnnc4)c3c2)cc1NS(=O)(=O)c1ccc(F)cc1F` [GSK2126458 (GSK458)], the “Relative cell viability (%)” value stood at 12.62%.

In the case of `O=C1Nc2ccc(Cl)cc2[C@@](C#CC2CC2)(C(F)(F)F)O1` [Efavirenz], the “Relative cell viability (%)” value is reported as 72.65%.

In the case of `CN1[C@@H]2CC[C@H]1C[C@@H](OC(=O)c1c[nH]c3ccccc13)C2` [Tropisetron], the “Relative cell viability (%)” value turned out to be 115.5%.
